Test results: patent US11464770B2, “Anticancer pharmaceutical composition” (NATIONAL CANCER CENTER, priority 2016, dated 2022)
Like-named read-outs stand apart in the source and are kept apart here.

Columns and labels:
[1] = tested on: bladder cancer cell lines; experiment: Cell based assay, cell viability (CellTiter-Glo), bladder cancer cell lines; settings: 72 hours treatment, 0 to 2 μM, CellTiter-Glo
Method in brief: (§1)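 Each commercial line was plated and allowed 24 h to settle at constant temperature. Compound exposure ran 72 h at final concentrations spanning 0 to 2 μM. Cell viability was then determined by luminescent ATP detection.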

[2] = tested on: blood cancer cell lines (e.g. HL-60, Jurkat, Raji, Ramos, Daudi, MOLT-4); experiment: Cell based assay, cell viability (CellTiter-Glo), blood cancer cell lines; settings: Homo sapiens
Method in brief: as §1

[3] = tested on: cervical carcinoma cell lines; experiment: Cell based assay, cell viability (CellTiter-Glo), cervical carcinoma cell lines; settings: Homo sapiens; HeLa cells
[4] = 253J cells, read-out: IC50, bladder cancer cell line 253J
[5] = 5637 cells, read-out: IC50, bladder cancer cell line 5637
[6] = Homo sapiens, T-24, T24 cells, read-out: IC50, bladder cancer cell line T24
[7] = Homo sapiens, UMUC3, UM-UC-3 cells, read-out: IC50, bladder cancer cell line UM-UC-3
[8] = Homo sapiens, J82 cells, read-out: IC50, bladder cancer cell line J82
[9] = Homo sapiens, KU-19-19 cells, read-out: IC50, bladder cancer cell line KU-19-19
[10] = MBT-2 cells, read-out: IC50, bladder cancer cell line MBT-2
[11] = MV4-11, blood cancer cell line MV-4-11, 72 hours, read-out: IC50, MV-4-11
[12] = blood cancer cell line Daudi, 72 hours, read-out: IC50, Daudi
[13] = blood cancer cell line HL-60, 72 hours, read-out: IC50, HL-60
[14] = blood cancer cell line Jurkat, 72 hours, read-out: IC50, Jurkat
[15] = blood cancer cell line MOLT-4, 72 hours, read-out: IC50, MOLT-4
[16] = blood cancer cell line Raji, 72 hours, read-out: IC50, Raji
[17] = blood cancer cell line Ramos (RA 1), 72 hours, read-out: IC50, Ramos (RA 1)
[18] = blood cancer cell line U-937, 72 hours, read-out: IC50, U-937

SMILES | IC50 [1, 4] [µM] | IC50 [1, 5] [µM] | IC50 [1, 6] [µM] | IC50 [1, 7] [µM] | IC50 [1, 8] [µM] | IC50 [1, 9] [µM] | IC50 [1, 10] [µM] | IC50 [2, 11] [µM] | IC50 [2, 12] [µM] | IC50 [2, 13] [µM] | IC50 [2, 14] [µM] | IC50 [2, 15] [µM] | IC50 [2, 16] [µM] | IC50 [2, 17] [µM] | IC50 [2, 18] [µM] | IC50 [3] [µM]
CC(=O)c1c(SCc2cccc(F)c2)[nH]c2c(Br)ccc(Cl)c2c1=O [Compound 49, 3-acetyl-8-bromo-5-chloro-2-((3-fluorobenzyl)thio)quinolin-4(1H)-one] | > 2 | > 2 | > 2 | > 2 | > 2 | > 2 | > 2 | > 2 | > 2 | > 2 | > 2 | > 2 | > 2 | > 2 | > 2 | > 10
CC(=O)c1c([S+]([O-])Cc2ccc(S(F)(F)(F)(F)F)cc2)[nH]c2c(F)ccc(F)c2c1=O (centres unmarked) [Compound 80, 3-acetyl-5,8-difluoro-2-((4-(pentafluoro--sulfanyl)benzyl)sulfinyl)quinolin-4(1H)-one] | > 2 | > 2 | > 2 |  | > 2 |  |  | > 2 | > 2 | > 2 | > 2 | > 2 | > 2 | > 2 | > 2 | > 10
CC(=O)c1c(SC(C)C)[nH]c2c(Br)ccc(Cl)c2c1=O [Compound 24, 3-acetyl-8-bromo-5-chloro-2-(isopropylthio)quinolin-4(1H)-one] | > 2 | > 2 | > 2 | > 2 | > 2 | > 2 | > 2 | > 2 | > 2 | > 2 | > 2 | > 2 | > 2 | > 2 | > 2 | > 10
O=C(c1ccccc1)c1c([S+]([O-])Cc2ccc(S(F)(F)(F)(F)F)cc2)[nH]c2c(F)ccc(F)c2c1=O (centres unmarked) [Compound 87, 3-benzoyl-5,8-difluoro-2-((4-(pentafluoro--sulfanyl)benzyl)sulfinyl)quinolin-4(1H)-one] | > 2 | > 2 | > 2 |  | > 2 |  |  | > 2 | > 2 | > 2 | > 2 | > 2 | > 2 | > 2 | > 2 | > 10
CC(=O)c1c([S+](C)[O-])n(S(=O)(=O)C(F)(F)F)c2c(Br)ccc(Cl)c2c1=O (centres unmarked) [Compound 36, 3-acetyl-8-bromo-5-chloro-2-(methylsulfinyl)-1-((trifluoromethyl)sulfonyl)quinolin-4(1H)-one] | > 2 | > 2 | > 2 | > 2 | > 2 | > 2 | 1.28 | > 2 | > 2 | > 2 | > 2 | > 2 | > 2 | > 2 | > 2 | > 10
CC(=O)c1c([S+]([O-])Cc2cccc(C#N)c2)[nH]c2c(Br)ccc(Cl)c2c1=O (centres unmarked) [Compound 28, 3-(((3-acetyl-8-bromo-5-chloro-4-oxo-1,4-dihydroquinolin-2-yl)sulfinyl)methyl)benzonitrile] |  | 1.03 | 0.82 |  | 1.33 |  |  | 1.07 | 1.94 | 1.06 | 0.88 | 1.18 | 0.87 | 1.49 | 0.87 | > 10
CC(=O)c1c([S+]([O-])c2ccccc2)[nH]c2c(Br)ccc(Cl)c2c1=O (centres unmarked) [Compound 13, 3-acetyl-8-bromo-5-chloro-2-(phenylsulfinyl)quinolin-4(1H)-one] | > 2 | > 2 | > 2 |  | > 2 |  |  | > 2 | > 2 | > 2 | > 2 | > 2 | > 2 | > 2 | > 2 | > 10
CSc1c(C(C)=O)c(=O)c2c(Cl)ccc(Br)c2n1C(C)=O [Compound 18, 1,1′-(8-bromo-5-chloro-2-(methylthio)-4-oxoquinoline-1,3(4H)-diyl)bis(ethan-1-one)] | > 2 | > 2 | > 2 | > 2 | > 2 | > 2 | > 2 | > 2 | > 2 | > 2 | > 2 | > 2 | > 2 | > 2 | > 2 | > 10
CC(=O)c1c(SCc2ccc(Cl)cc2)[nH]c2c(Br)ccc(Cl)c2c1=O [Compound 10, 3-acetyl-8-bromo-5-chloro-2-((4-chlorobenzyl)thio)quinolin-4(1H)-one] | > 2 | > 2 | > 2 | > 2 | > 2 | > 2 | > 2 | > 2 | > 2 | > 2 | > 2 | > 2 | > 2 | > 2 | > 2 | > 10
CC(=O)c1c(S)[nH]c2c(Br)ccc(Cl)c2c1=O [Compound 62, 3-acetyl-8-bromo-5-chloro-2-mercaptoquinolin-4(1H)-one] | > 2 | > 2 | > 2 | > 2 | > 2 | > 2 | > 2 | > 2 | > 2 | > 2 | > 2 | > 2 | > 2 | > 2 | > 2 | > 10
CC(=O)c1c(SCc2cc(Cl)ccc2Cl)[nH]c2c(Br)ccc(Cl)c2c1=O [Compound 43, 3-acetyl-8-bromo-5-chloro-2-((2,5-dichlorobenzyl)thio)quinolin-4(1H)-one] | > 2 | > 2 | > 2 | > 2 | > 2 | > 2 | > 2 | > 2 | > 2 | > 2 | > 2 | > 2 | > 2 | > 2 | > 2 | > 10
CC(=O)c1c([S+]([O-])CN2C(=O)c3ccccc3C2=O)[nH]c2c(Cl)ccc(Cl)c2c1=O (centres unmarked) [Compound 90, 2-(((3-acetyl-5,8-dichloro-4-oxo-1,4-dihydroquinolin-2-yl)sulfinyl)methyl)isoindoline-1,3-dione] | > 2 | > 2 | > 2 | > 2 | > 2 | > 2 | > 2 | > 2 | > 2 | > 2 | > 2 | > 2 | > 2 | > 2 | > 2 | > 10
CSc1[nH]c2ccc(F)cc2c(=O)c1C(C)=O [Compound 8, 1-(6-fluoro-4-hydroxy-2-(methylthio)quinolin-3-yl)ethan-1-one] | > 2 | > 2 | > 2 | > 2 | > 2 | > 2 | > 2 | > 2 | > 2 | > 2 | > 2 | > 2 | > 2 | > 2 | > 2 | > 10
CC(=O)c1c([S+]([O-])Cc2ccc(Cl)nc2)[nH]c2c(Br)ccc(Cl)c2c1=O (centres unmarked) [Compound 104, 3-acetyl-8-bromo-5-chloro-2-(((6-chloropyridin-3-yl)methyl)sulfinyl)quinolin-4(1H)-one] |  | > 2 | 1.03 |  | > 2 |  |  | 0.95 | 1.15 | > 2 | > 2 | 0.93 | 1.44 | 1.06 | > 2 | > 2
CC(=O)c1c(SCc2ccc(F)c(Cl)c2)[nH]c2c(Br)ccc(Cl)c2c1=O [Compound 30, 3-acetyl-8-bromo-5-chloro-2-((3-chloro-4-fluorobenzyl)thio)quinolin-4(1H)-one] | > 2 | > 2 | > 2 | > 2 | > 2 | > 2 | > 2 | > 2 | > 2 | > 2 | > 2 | > 2 | > 2 | > 2 | > 2 | > 10
CC(=O)c1c([S+]([O-])Cc2cc(C)on2)[nH]c2c(F)ccc(F)c2c1=O (centres unmarked) [Compound 82, 3-acetyl-5,8-difluoro-2-(((5-methylisoxazol-3-yl)methyl)sulfinyl)quinolin-4(1H)-one] | > 2 | > 2 | > 2 |  | > 2 |  |  | > 2 | > 2 | > 2 | > 2 | > 2 | > 2 | > 2 | > 2 | > 10
CSc1c(C(C)=O)c(=O)c2cc(F)ccc2n1C [Compound 7, 3-acetyl-6-fluoro-1-methyl-2-(methylthio)quinolin-4(1H)-one] | > 2 | > 2 | > 2 | > 2 | > 2 | > 2 | > 2 | > 2 | > 2 | > 2 | > 2 | > 2 | > 2 | > 2 | > 2 | > 10
CC(=O)c1c([S+](C)[O-])n(Cc2ccc(F)c(Cl)c2)c2c(Br)ccc(Cl)c2c1=O (centres unmarked) [Compound 22, 3-acetyl-8-bromo-5-chloro-1-(3-chloro-4-fluorobenzyl)-2-(methylsulfinyl)quinolin-4(1H)-one] | > 2 | > 2 | > 2 | > 2 | > 2 | > 2 | > 2 | > 2 | > 2 | > 2 | > 2 | > 2 | > 2 | > 2 | > 2 | > 10
CC(=O)c1c(SCc2ccccc2)[nH]c2c(Br)ccc(Cl)c2c1=O [Compound 3, 3-acetyl-2-(benzylthio)-8-bromo-5-chloroquinolin-4(1H)-one] | > 2 | > 2 | > 2 | > 2 | > 2 | > 2 | > 2 | > 2 | > 2 | > 2 | > 2 | > 2 | > 2 | > 2 | > 2 | > 10
